Experimental data published in US9150495B2, “Polyamine transporter selective compounds as anti cancer agents” (University of Central Florida Research Foundation, Inc., priority 2007, dated 2015).
Where a name gives a salt, the structure may show the parent alone.

Experiments:
[1] = molecular target: Topoisomerase IIalpha (Topo IIa) (Homo sapiens, UniProt P11388); assay: Topo II kDNA decatenation assay (agarose gel); type: biochemical
Description: Thus the linear polyamine-anthracene conjugates herein disclosed (e.g., compound 4) were evaluated as Topo II inhibitors. A well established in vitro Topo II assay (as used previously) allowed us to determine whether these new conjugates (previously described compound A and novel compound 4 of the present invention) have the ability to inhibit Topo II by preventing Topo IIa from decatenating (i.e., disentangling) kinetoplast DNA (kDNA).
A negative image of agarose gel electrophoresis is visualized under UV light. Drugs were incubated with kDNA (200 ng) and Topo IIa (4 units) in reaction buffer prior to loading onto the gel. Neg. Control (−): kDNA only; Pos. Control (+): kDNA+Topo II (without conjugate); Inhibitory Control (B, rightmost lane): Berenil (50 μM). All other lanes contain the corresponding conjugate at the listed μM concentrations. Positive Topo II activity is shown by the formation of nicked open circular (NOC) DNA (middle band) and covalently closed circular (CCC) DNA (bottom band). Inhibition is shown by the negative activity of Topo II where kDNA (top band) is not decatenated and remains in the well.
When kDNA was not incubated with drug and Topo II (negative control), no migration occurred on the gel and the kDNA remained in the well as expected, which was indicated by the single top band visualized in the well. When kDNA was incubated with Topo II in the absence of drug, the top band in the well disappeared completely while two bands representing the two decatenated products could be seen.

L1210 cells [2] = assay: L1210 cytotoxicity in presence of DFMO; type: cell-based, mouse; conditions: in the presence of DFMO
Description: (§1) L1210 cells are mouse leukemia cells and are a standard well used benchmark for evaluating cytotoxicity of new drug systems, especially polyamine containing drugs.
(§2) Cytotoxicity experiments were also performed in murine leukemia cells (L1210, Table 3) with and without the presence of difluoromethylornithine (DFMO), a known inhibitor of ornithine decarboxylase (the enzyme responsible for polyamine biosynthesis). Typically, when one blocks the ability of cells to synthesize polyamines, the cells respond by increasing their import of extracellular polyamines via PAT. Therefore, if our drugs are PAT-selective we should see a lowering of their respective IC50 values in the presence of DFMO, a molecule which facilitates the drug's import. […] Ki values indicate the binding affinity of the compounds for the PAT. Using competition experiments with radiolabeled spermidine, we were able to rank the binding affinity of the compounds for the PAT. Low Ki values mean the compound has a high binding affinity for the PAT.

CHO cells = assay: CHO wild type cytotoxicity (active polyamine transport); type: cell-based, Chinese hamster; conditions: for IC50: Cricetulus griseus, CHO wild type cells, active PAT; for CHOMG/CHO IC50 Ratio: IC50 in CHOMG / IC50 in CHO, PAT selectivity
Description: (§3) Chinese hamster ovary cells (CHO cells) have an active polyamine transporter. This cell type is very susceptible to drugs which use the polyamine transporter system to gain access to cells (i.e. polyamine conjugates). The PAT targeting selectivity was determined using a Chinese hamster cell assay. The CHO wild type cells have active polyamine transport activity and therefore should be very susceptible to the polyamine conjugate and give low IC50 values. […] The lower the value the more cytotoxic the drug is to that cell type. In contrast, the mutant CHO-MG cells, which have no PAT activity are not as sensitive to the polyamine conjugate (which is unable to enter these cells via the defective PAT) and give higher IC50 values. We express these as a ratio of the IC50 value in CHOMG/IC50 value in CHO. The higher the ratio the more PAT selective is the polyamine conjugate drug. […] Cytotoxicity experiments were also performed in murine leukemia cells (L1210, Table 3) with and without the presence of difluoromethylornithine (DFMO), a known inhibitor of ornithine decarboxylase (the enzyme responsible for polyamine biosynthesis). Typically, when one blocks the ability of cells to synthesize polyamines, the cells respond by increasing their import of extracellular polyamines via PAT. Therefore, if our drugs are PAT-selective we should see a lowering of their respective IC50 values in the presence of DFMO, a molecule which facilitates the drug's import. […] Ki values indicate the binding affinity of the compounds for the PAT. Using competition experiments with radiolabeled spermidine, we were able to rank the binding affinity of the compounds for the PAT. Low Ki values mean the compound has a high binding affinity for the PAT.

CHO-MG cells = assay: CHO-MG cytotoxicity (PAT-deficient mutant cells); type: cell-based, Chinese hamster; conditions: Cricetulus griseus, no PAT activity, read-out: CHOMG IC50
Description: as §3, with “which are chemically mutated to be” for “(CHO cells) have an active”, “transport-deficient will be referred to as the CHO-MG” for “transporter. This”, “line. […]” for “type is very susceptible to drugs which use the polyamine transporter system to gain access to cells (i.e. polyamine conjugates).”

[3] = molecular target: polyamine transporter (PAT); assay: PAT binding affinity, competition with radiolabeled spermidine in L1210; parameters: species or system mouse; conditions: L1210 cells
Description: “Ki value” reflects the affinity of the drug architecture for the polyamine transporter. The lower the value of the Ki, the higher the affinity of the drug for the polyamine transporter.
as §2

L1210 cells [4] = assay: L1210 cytotoxicity; type: cell-based; conditions: Mus musculus, without DFMO
Description: as §1, §2

Topoisomerase IIalpha (Topo IIa), sequence (P11388 whole entry): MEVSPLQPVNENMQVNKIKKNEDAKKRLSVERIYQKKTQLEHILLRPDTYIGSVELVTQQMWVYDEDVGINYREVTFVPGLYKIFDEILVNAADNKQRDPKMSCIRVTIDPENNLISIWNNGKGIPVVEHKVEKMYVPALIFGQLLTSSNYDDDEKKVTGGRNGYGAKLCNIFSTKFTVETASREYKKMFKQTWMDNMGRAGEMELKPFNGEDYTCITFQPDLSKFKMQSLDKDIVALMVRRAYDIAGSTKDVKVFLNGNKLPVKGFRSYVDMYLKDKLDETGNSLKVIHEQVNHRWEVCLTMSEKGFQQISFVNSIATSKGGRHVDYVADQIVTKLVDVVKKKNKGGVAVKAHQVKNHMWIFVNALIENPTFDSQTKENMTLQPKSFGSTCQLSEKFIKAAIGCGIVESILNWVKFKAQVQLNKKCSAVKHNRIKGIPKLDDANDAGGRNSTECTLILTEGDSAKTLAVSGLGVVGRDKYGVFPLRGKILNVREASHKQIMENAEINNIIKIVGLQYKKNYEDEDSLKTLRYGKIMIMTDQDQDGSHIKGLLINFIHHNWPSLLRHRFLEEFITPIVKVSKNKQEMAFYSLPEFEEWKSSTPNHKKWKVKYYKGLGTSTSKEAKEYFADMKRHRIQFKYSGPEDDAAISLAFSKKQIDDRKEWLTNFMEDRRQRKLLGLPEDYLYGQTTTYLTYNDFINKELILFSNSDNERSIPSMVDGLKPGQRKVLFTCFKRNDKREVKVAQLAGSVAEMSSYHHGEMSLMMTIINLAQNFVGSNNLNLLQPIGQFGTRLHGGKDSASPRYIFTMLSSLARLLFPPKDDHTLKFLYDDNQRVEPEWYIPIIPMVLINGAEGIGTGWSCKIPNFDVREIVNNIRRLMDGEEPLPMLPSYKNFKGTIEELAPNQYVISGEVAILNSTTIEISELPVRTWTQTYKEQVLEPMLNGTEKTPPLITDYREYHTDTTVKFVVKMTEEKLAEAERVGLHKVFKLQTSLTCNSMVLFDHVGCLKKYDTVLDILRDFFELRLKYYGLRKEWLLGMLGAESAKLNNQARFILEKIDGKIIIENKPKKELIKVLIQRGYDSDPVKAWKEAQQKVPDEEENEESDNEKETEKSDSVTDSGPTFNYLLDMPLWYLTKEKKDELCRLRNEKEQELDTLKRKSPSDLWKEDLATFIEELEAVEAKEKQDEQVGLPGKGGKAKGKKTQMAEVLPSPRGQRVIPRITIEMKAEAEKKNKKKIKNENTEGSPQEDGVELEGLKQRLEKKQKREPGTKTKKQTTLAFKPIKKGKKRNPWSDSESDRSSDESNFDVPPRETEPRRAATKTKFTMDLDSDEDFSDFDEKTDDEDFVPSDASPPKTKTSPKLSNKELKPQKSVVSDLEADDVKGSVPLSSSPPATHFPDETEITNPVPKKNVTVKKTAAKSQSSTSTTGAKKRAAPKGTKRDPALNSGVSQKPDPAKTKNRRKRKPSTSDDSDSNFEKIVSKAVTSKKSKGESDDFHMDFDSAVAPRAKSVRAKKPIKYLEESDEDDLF

| SMILES | Topo II inhibition (kDNA remaining in well) ([1]; 50 μM, inhibitory control) | Topo II inhibition (kDNA remaining undecatenated) ([1]; 5 μM, kDNA 200 ng, Topo IIa 4 units) | Type of Topo II inhibition ([1]; inhibition increased with drug concentration) | Ki [3] | IC50 (L1210 cells [2]; Mus musculus, L1210) | IC50 (CHO cells) | CHOMG/CHO IC50 Ratio (CHO cells; Hydrochloride salt) | IC50 (CHO-MG cells) | IC50 (L1210 cells [4]) | CHOMG/CHO IC50 Ratio (CHO cells) | IC50 (L1210 cells [2]) |
| --- | --- | --- | --- | --- | --- | --- | --- | --- | --- | --- | --- |
| Cl.NCCCCNCCCCNCc1ccc(CNCCCCNCCCCN)c2ccccc12 [Compound 7, N-(4-Amino-butyl)-N′-(4-{[4-(4-amino-butylamino)-butylamino]-methyl}-naphthalen-1-ylmethyl)-butane-1,4-diamine, Hydrochloride salt] | – | – | – | 170 ± 20 nM | – | 120 ± 30 nM | – | > 100000 nM | 250 ± 80 nM | >833 | – |
| Cl.NCCCCNCCCCNCc1ccc(CNCCCCNCCCCN)cc1 [Compound 10, N-(4-Amino-butyl)-N′-(4-{[4-(4-amino-butylamino)-butylamino]-methyl}-benzyl)-butane-1,4-diamine, Hydrochloride salt] | – | – | – | 520 ± 110 nM | 360 ± 30 nM | 74 ± 10 nM | – | 50200 ± 3800 nM | 160 ± 10 nM | 677 | – |
| NCCCCNCCCCNCc1cc(CNCCCCNCCCCN)cc(CN(CCCCN)CCCCN)c1 [Compound 15, N-(4-Amino-butyl)-N-(3,5-bis-{[4-(4-amino-butylamino)-butylamino]-methyl}-benzyl)-butane-1,4-diamine, nona-Hydrochloride Salt] | – | – | – | 490 ± 20 nM | – | > 500000 nM | – | > 500000 nM | 122000 ± 8100 nM | – | 49300 ± 10000 nM |

Second part, led by results:

| Topo II inhibition (kDNA remaining in well) ([1]; 50 μM, inhibitory control) | Topo II inhibition (kDNA remaining undecatenated) ([1]; 5 μM, kDNA 200 ng, Topo IIa 4 units) | Type of Topo II inhibition ([1]; inhibition increased with drug concentration) | Ki [3] | SMILES | IC50 (L1210 cells [2]; Mus musculus, L1210) | IC50 (CHO cells) | CHOMG/CHO IC50 Ratio (CHO cells; Hydrochloride salt) | IC50 (CHO-MG cells) | IC50 (L1210 cells [4]) | CHOMG/CHO IC50 Ratio (CHO cells) | IC50 (L1210 cells [2]) |
| --- | --- | --- | --- | --- | --- | --- | --- | --- | --- | --- | --- |
| good inhibition | – | – | – | CC(=O)NCC(=O)O.CC(=O)NCC(=O)O.N=C(N)c1ccc(N=NNc2ccc(C(=N)N)cc2)cc1 [Berenil, reference compound] | – | – | – | – | – | – | – |
| – | good inhibition | catalytic Topo-II inhibitors | 390 ± 50 nM | Cl.NCCCCNCCCCNCc1c2ccccc2c(CNCCCCNCCCCN)c2ccccc12 [Compound 4, N-(4-Amino-butyl)-N′-(10-{[4-(4-amino-butylamino)-butylamino]-methyl}-anthracen-9-ylmethyl)-butane-1,4-diamine, Hydrochloride salt] | 220 ± 80 nM | 45 ± 3 nM | >2222 | > 100000 nM | 780 ± 70 nM | – | – |
